ChEMBL document CHEMBL5247651, “Oxadiazolopyridine Derivatives as Efficacious Mitochondrial Uncouplers in the Prevention of Diet-Induced Obesity” (J Med Chem, 2023)
Calls of active or inactive are those of the source. The calls are words filed in the database; no cut-off is given here.

Assays:
[1] = (§1) Induction of mitochondrial uncoupling activity in rat L6 cells assessed as increase in oxygen consumption rate at 0.37 to 200 uM measured after 90 mins by agilent Seahorse XF analyzer relative to BAM15; type: functional; conditions: dose 0.37-200 µM, 1.5 h
[2] = Induction of mitochondrial uncoupling activity in rat L6 cells assessed as increase in oxygen consumption rate measured after 90 mins by agilent Seahorse XF analyzer; type: functional, cell-based
L6 [3] = conditions: Rattus norvegicus, time 90.0 min
L6 [4] = assay: as §1; type: functional; conditions: dose 0.37-200 µM
[5] = Cmax in C57BL/6 mouse at 10 mg/kg, po administered via gavage measured upto 24 hrs by LC/MS-MS analysis; type: ADME, organism-based; design: dose 10 mg/kg, time < 24 hrs, route po; conditions: in vivo
[6] = Half life in C57BL/6 mouse at 10 mg/kg, po administered via gavage measured upto 24 hrs by LC/MS-MS analysis; type: ADME, organism-based; conditions: in vivo
Mus musculus [7] = assay: Anti-obesity activity against HFD-induced C57BL/6J mouse model assessed as reduction in diet-induced weight gain at 125 mg/kg/day measured after 8 weeks; type: functional; design: scale not given: the % may be the effect or the level left
Mus musculus [8] = assay: Anti-obesity activity against HFD-induced C57BL/6 mouse model assessed as reduction in body fat mass at 5 mg/kg, po via gavage administered 3 times a week measured after 6 weeks; type: functional; design: scale not given: the % may be the effect or the level left

Compound | Activity [1] [%] | pEC50 [2] | further results
Oc1nc2nonc2cc1Nc1ccc(C(F)(F)F)cc1 | 28 | – | EC50 [2]: 6.9 µM
Oc1nc2nonc2cc1Nc1cc(OC(F)(F)F)ccc1F | 59 | 5.5 | EC50 [2]: 3.4 µM
CC(C)(C)c1ccccc1Nc1cc2nonc2nc1O | – | – | pEC50 (L6 [3]): inactive; Activity (L6 [4]): inactive
Oc1nc2nonc2cc1Nc1ccc(OC(F)(F)F)c(F)c1 | 25 | 5.6 | –
Oc1nc2nonc2cc1Nc1ccc(F)cc1OC(F)(F)F | 14 | 5.7 | –
Cc1ccc(Nc2cc3nonc3nc2O)cc1 | – | – | pEC50 (L6 [3]): inactive; Activity (L6 [4]): inactive
Oc1nc2nonc2cc1Nc1c(F)cc(F)cc1F | 14 | 4.4 | –
Oc1nc2nonc2cc1Nc1ccc(F)c(F)c1F | 2 | – | pEC50 (L6 [3]): inactive
Oc1nc2nonc2cc1Nc1cc(C(F)(F)F)ccc1F | 54 | 5.4 | Cmax [5]: 46 µM; t1/2 [6]: 1 h; EC50 [2]: 1.5 µM
Oc1nc2nonc2cc1Nc1ccc(C(F)(F)F)c(F)c1 | 10 | 6.1 | –
O=C(Nc1ccc([N+](=O)[O-])cc1Cl)c1cc(Cl)ccc1O [NICLOSAMIDE] | – | – | Activity (Mus musculus [7]): 25%
O=S(=O)(c1cccc(Nc2cc3nonc3nc2O)c1)C(F)(F)F | 13 | > 4 | –
Oc1nc2nonc2cc1Nc1cc(OC(F)(F)F)c(F)cc1F | 58 | 5.7 | –
Oc1nc2nonc2cc1Nc1ccc(C(F)(F)F)cc1F | 9 | – | pEC50 (L6 [3]): inactive
Oc1nc2nonc2cc1Nc1ccc(OC(F)(F)F)cc1C(F)(F)F | 57 | 5.5 | Cmax [5]: 10 µM; t1/2 [6]: > 24 h; EC50 [2]: 3.1 µM
Oc1nc2nonc2cc1Nc1ccc(F)cc1 | 6 | – | pEC50 (L6 [3]): inactive
Oc1nc2nonc2cc1Nc1cc(F)cc(F)c1 | 24 | 4.3 | –
Oc1nc2nonc2cc1Nc1ccc(C(F)(F)F)c(C(F)(F)F)c1 | 10 | 6 | –
Oc1nc2nonc2cc1Nc1cccc(OC(F)(F)F)c1F | 30 | 5.9 | –

Compound | Activity [1] [%] | pEC50 [2] | further results
Oc1nc2nonc2cc1Nc1cccc(C(F)(F)F)c1F | 3 | – | pEC50 (L6 [3]): inactive
Oc1nc2nonc2cc1Nc1ccc(OC(F)(F)F)cc1F | 11 | 5.8 | –
Oc1nc2nonc2cc1Nc1cc(F)c(F)c(F)c1 | 21 | 5.6 | –
Oc1nc2nonc2cc1Nc1ccc(C(F)(F)F)nc1 | 26 | 4.7 | EC50 [2]: 20 µM
Oc1nc2nonc2cc1Nc1cc(C(F)(F)F)cc(C(F)(F)F)c1 | 35 | 5.8 | –
Oc1nc2nonc2cc1Nc1ccc(S(F)(F)(F)(F)F)cc1 | 4 | 6.2 | –
Oc1nc2nonc2cc1Nc1cccc(F)c1F | 3 | – | pEC50 (L6 [3]): inactive
Oc1nc2nonc2cc1Nc1ccc(F)c(F)c1 | 17 | 4.2 | –
COc1ccc(Nc2cc3nonc3nc2O)cc1 | – | – | pEC50 (L6 [3]): inactive; Activity (L6 [4]): inactive
Oc1nc2nonc2cc1Nc1c(F)c(F)c(C(F)(F)F)c(F)c1F | 69 | 5.9 | Cmax [5]: 21 µM; t1/2 [6]: 15.6 h; EC50 [2]: 2 µM
Oc1nc2nonc2cc1Nc1cccc(OC(F)(F)F)c1 | 17 | 5.3 | –
Oc1nc2nonc2cc1Nc1cc(F)ccc1OC(F)(F)F | 13 | 5.9 | –
Oc1nc2nonc2cc1Nc1cccc(F)c1C(F)(F)F | 26 | 5.3 | –
Oc1nc2nonc2cc1Nc1cccc(F)c1 | 3 | – | pEC50 (L6 [3]): inactive
Oc1nc2nonc2cc1Nc1ccc(F)cc1C(F)(F)F | 29 | 5.3 | –
Oc1nc2nonc2cc1Nc1ccc(F)cc1F | – | – | pEC50 (L6 [3]): inactive; Activity (L6 [4]): inactive
Oc1nc2nonc2cc1Nc1cccc(S(F)(F)(F)(F)F)c1 | 20 | 5.9 | –
Oc1nc2nonc2cc1Nc1cc(F)c(C(F)(F)F)cc1F | 26 | 6.1 | –
Oc1nc2nonc2cc1Nc1cc(F)cc(OC(F)(F)F)c1 | 6 | – | pEC50 (L6 [3]): inactive

Compound | Activity [1] [%] | pEC50 [2] | further results
Oc1nc2nonc2cc1Nc1cc(F)ccc1C(F)(F)F | 53 | 5.1 | EC50 [2]: 7.8 µM
Oc1nc2nonc2cc1Nc1c(F)cccc1F | 6 | – | pEC50 (L6 [3]): inactive
Oc1nc2nonc2cc1Nc1ccccc1F | – | – | pEC50 (L6 [3]): inactive
Oc1nc2nonc2cc1Nc1ccc(C(F)(F)F)cc1C(F)(F)F | 34 | 6 | –
O=S(=O)(c1ccc(Nc2cc3nonc3nc2O)cc1)C(F)(F)F | 25 | 6 | –
Oc1nc2nonc2cc1Nc1cc(F)ccc1F | 27 | 4.7 | –
Oc1nc2nonc2cc1Nc1ccccc1OC(F)(F)F | – | – | pEC50 (L6 [3]): inactive; Activity (L6 [4]): inactive
Oc1nc2nonc2cc1Nc1ccc(OC(F)(F)C(F)F)cc1 | – | – | pEC50 (L6 [3]): inactive; Activity (L6 [4]): inactive
O=C(Nc1cc(Cl)cc(Cl)c1)Nc1cc(Cl)cc(Cl)c1 | – | – | Activity (Mus musculus [8]): 35%
Oc1nc2nonc2cc1Nc1cc(F)cc(C(F)(F)F)c1 | 11 | 6.1 | –
Oc1nc2nonc2cc1Nc1cccc(C(F)(F)F)c1C(F)(F)F | 11 | 5.7 | –
Oc1nc2nonc2cc1Nc1ccc(OC(F)(F)F)cc1 | 14 | 5.8 | –
Oc1nc2nonc2cc1Nc1cc(C(F)(F)F)c(F)cc1F | 51 | 5.5 | Cmax [5]: 25 µM; t1/2 [6]: 1.3 h; EC50 [2]: 1.4 µM
Oc1nc2nonc2cc1Nc1cccc(C(F)(F)F)c1 | 14 | 5.8 | –
CS(=O)(=O)c1ccc(Nc2cc3nonc3nc2O)cc1 | – | – | pEC50 (L6 [3]): inactive; Activity (L6 [4]): inactive
Oc1nc2nonc2cc1Nc1c(F)cccc1C(F)(F)F | 10 | 4.3 | –
Oc1nc2nonc2cc1Nc1cc(C(F)(F)F)ccc1C(F)(F)F | 72 | 5.7 | Cmax [5]: 29 µM; t1/2 [6]: 2.2 h; EC50 [2]: 1.5 µM
Oc1nc2nonc2cc1Nc1cc(F)c(C(F)(F)F)c(F)c1 | 33 | 5.9 | –
Oc1nc2nonc2cc1Nc1ccccc1C(F)(F)F | 20 | 4.8 | –
